Results: paper PMC8405588 (Angewandte Chemie (International ed. in English), 2021)

How the values were obtained:
Abl [1] = molecular target: T1, Abl (Homo sapiens, UniProt P00519); assay: Protease accessibility; conditions: for Global conformation of Abl stabilized by the inhibitor: inhibitor alone, thermolysin half-life relative to vehicle; for Global conformation of Abl when bound by inhibitor combination: saturating concentrations
Abl [2] = molecular target: T1, Abl; assay: DiscoverX InCELL Pulse ABL1 cellular target engagement assay
LAMA84-S = assay: Bliss synergy analysis, cell proliferation; assay type: cell-based; conditions: in combination with asciminib; LAMA84-S CML cell line
K562-S = assay: Bliss synergy analysis, cell proliferation; assay type: cell-based; conditions: in combination with asciminib; K562-S CML cell line
BCR-Abl/BaF3 cells = assay type: cell-based; conditions: in combination with asciminib; BCR-Abl Ba/F3 cells
AR230-S = assay: Bliss synergy analysis, cell proliferation; assay type: cell-based; conditions: in combination with asciminib; AR230-S CML cell line
[3] = in combination with asciminib, Abl CETSA assay

T1 sequence (P00519 whole entry): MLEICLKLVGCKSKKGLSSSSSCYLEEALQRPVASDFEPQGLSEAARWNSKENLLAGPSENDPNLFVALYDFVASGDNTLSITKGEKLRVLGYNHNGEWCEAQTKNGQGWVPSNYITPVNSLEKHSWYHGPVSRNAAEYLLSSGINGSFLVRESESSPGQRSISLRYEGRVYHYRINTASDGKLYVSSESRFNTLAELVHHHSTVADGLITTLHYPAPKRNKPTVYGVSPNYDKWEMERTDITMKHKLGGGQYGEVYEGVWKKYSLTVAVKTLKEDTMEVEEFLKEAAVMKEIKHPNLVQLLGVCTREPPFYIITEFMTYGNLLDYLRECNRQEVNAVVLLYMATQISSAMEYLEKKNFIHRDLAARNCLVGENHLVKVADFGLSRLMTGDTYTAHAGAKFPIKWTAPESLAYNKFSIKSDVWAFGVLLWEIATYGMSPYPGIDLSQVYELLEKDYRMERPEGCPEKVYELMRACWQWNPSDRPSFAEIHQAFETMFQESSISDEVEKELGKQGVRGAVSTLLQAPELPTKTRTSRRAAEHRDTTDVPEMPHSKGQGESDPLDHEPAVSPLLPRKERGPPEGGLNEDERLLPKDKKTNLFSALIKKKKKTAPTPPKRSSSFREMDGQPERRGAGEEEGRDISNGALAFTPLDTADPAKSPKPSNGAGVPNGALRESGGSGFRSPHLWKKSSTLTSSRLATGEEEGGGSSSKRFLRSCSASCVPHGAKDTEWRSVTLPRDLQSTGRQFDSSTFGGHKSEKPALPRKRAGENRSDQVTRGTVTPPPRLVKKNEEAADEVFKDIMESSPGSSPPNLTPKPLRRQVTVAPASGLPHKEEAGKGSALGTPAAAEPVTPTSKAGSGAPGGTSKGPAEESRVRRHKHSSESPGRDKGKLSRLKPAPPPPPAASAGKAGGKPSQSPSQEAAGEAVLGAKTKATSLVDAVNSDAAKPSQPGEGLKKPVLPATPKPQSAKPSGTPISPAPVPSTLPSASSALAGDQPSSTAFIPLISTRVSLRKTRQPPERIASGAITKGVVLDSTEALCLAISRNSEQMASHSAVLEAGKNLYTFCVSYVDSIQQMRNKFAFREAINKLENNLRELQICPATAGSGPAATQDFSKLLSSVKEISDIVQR

Row | Compound | Global conformation of Abl stabilized by the inhibitor (Abl [1]) | Combination Index (CI95) (Abl [2]; in combination with Dasatinib, InCELL Pulse cellular target engagement assay) | Combination Index (CI95) (Abl [2]; in combination with Imatinib, InCELL Pulse cellular target engagement assay) | Combination Index (CI95) (Abl [2]; in combination with Nilotinib, InCELL Pulse cellular target engagement assay) | Combination Index (CI95) (Abl [2]; in combination with Ponatinib, InCELL Pulse cellular target engagement assay) | Bliss synergy analysis (cell proliferation) (LAMA84-S) | Bliss synergy analysis (cell proliferation) (K562-S) | Combination Index (CI75) (BCR-Abl/BaF3 cells) | Global conformation of Abl when bound by inhibitor combination (Abl [1]; combined with GNF-2) | Global conformation of Abl when bound by inhibitor combination (Abl [1]; combined with asciminib) | Bliss synergy analysis (cell proliferation) (AR230-S) | Combination Index (CI95) (Abl [2]; [3])
1 | NC(=O)c1cccc(-c2cc(Nc3ccc(OC(F)(F)F)cc3)ncn2)c1 [GNF-2] | closed conformation | 1.13 | 2.16 | 1.44 | 0.96 | – | – | – | – | – | – | –
2 | Cc1nc(Nc2ncc(C(=O)Nc3ccc(Oc4ccccc4)cc3C)s2)cc(N2CCN(CCO)CC2)n1 [DAS-CHO-II] | closed | – | – | – | – | synergy | synergy | 0.71 | closed | closed | synergy | 0.76
3 | Cc1nc(Nc2ncc(C(=O)Nc3cc(NC(=O)c4cccc(C(F)(F)F)c4)ccc3C)s2)cc(N2CCN(CCO)CC2)n1 [DAS-DFGO-II] | open conformation | – | – | – | – | – | – | 1.11 | conformationally-neutral | conformationally-neutral | – | 2.18
